Test [1] has as its target T1, mushroom tyrosinase (Agaricus bisporus, UniProt C7FF04). The test is described as follows: Tyrosinase inhibition assay (L-DOPA oxidation, absorbance at 492 nm).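 Note: enzyme in phosphate buffer, compounds preincubated with enzyme, inhibition computed against blank absorbance, IC50 fitted by nonlinear regression, runs in triplicate.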 It is filed as biochemical.
Method: The inhibitory effect on mushroom tyrosinase (TYase) was evaluated using a method reported in the literature with some modifications[21]. This assay was performed in PBS (100 mM, pH = 6.8 in 25 °C). Test samples 1–44 (80 µL) were preincubated with TYase solution (40 µL; 250 U/mL) at 25 °C for 10 min. Then, L-DOPA (80 µL; 0.19 mg/mL) was added, and after an additional 10 min at 25 °C, the absorbance was measured at 492 nm. […] The inhibitory effect was calculated as follows: TYaseInh (%) = [(B−C)/C] x 100 where B and C are the absorbances of the blank and the compounds, respectively. […] All tests were performed in triplicate.
Statistical analysis for IC50 calculations was performed using nonlinear regression using GraphPad Prism 9 (Trail, GraphPad Software, La Jolla, CA, USA). Data were collected as mean ± SD (n = 3), and the significance of differences was analysed using one-way analysis of variance (ANOVA).
Test [2] deals with T1, mushroom tyrosinase. The test is described as follows: Tyrosinase inhibition kinetic analysis (Lineweaver-Burk and Dixon plots). Format: biochemical. The settings on record: for Type of inhibition: Lineweaver-Burk plots.
Method: The enzyme reaction kinetics of these compounds were measured by constructing Lineweaver-Burk plots of inverse velocities (1/V), contrary to the inverse of substrate concentration (1/S)[22]^,[23]. Preincubations and measurement times were performed using the same protocol as described above. The enzyme concentration (250 U/mL) was kept constant in the presence of substrate solutions (L-DOPA) between 0.25 and 2 mM in all kinetic studies. The inhibitor concentrations for all test compounds were 0, 25, and 50 µM. The inhibitory types and inhibitory constant (Ki) values were described by 1/V versus inhibitor concentration plots (Dixon plot).
[3] abbreviates: substrate L-DOPA, PBS pH 6.8, 25 °C, highest tested concentration 500 µM, mean ± SD, n = 3, read-out: IC50.
Setting [4] is: Dixon plot, L-DOPA 0.25-2 mM, inhibitor 0, 25, 50 µM, ± SD, triplicate, read-out: Ki.
The mark [5] stands for this setting: L-DOPA 0.25-2 mM, inhibitor 0, 25, 50 µM.

Like-named read-outs stand apart in the source and are kept apart here.

T1 sequence (C7FF04 1-392): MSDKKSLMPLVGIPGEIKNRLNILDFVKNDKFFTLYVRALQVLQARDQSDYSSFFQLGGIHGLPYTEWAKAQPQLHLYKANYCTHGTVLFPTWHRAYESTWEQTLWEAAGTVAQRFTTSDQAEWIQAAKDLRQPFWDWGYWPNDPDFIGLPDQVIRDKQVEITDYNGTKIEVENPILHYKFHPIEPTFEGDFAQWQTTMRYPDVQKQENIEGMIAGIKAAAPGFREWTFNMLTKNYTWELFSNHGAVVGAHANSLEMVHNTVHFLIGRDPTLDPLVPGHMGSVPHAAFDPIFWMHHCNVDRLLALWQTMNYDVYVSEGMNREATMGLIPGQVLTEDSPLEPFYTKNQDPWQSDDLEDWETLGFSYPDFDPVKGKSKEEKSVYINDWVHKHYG

Usually IC50 stands for the concentration that gives 50% inhibition. For `COc1ccc(C2CC(=O)c3c(O)cc(OC)cc3O2)cc1` (stereo not drawn) [Compound 2, 7,4′-dimethoxynaringenin], the IC50 against mushroom tyrosinase [1] was over 500 µM.

The term Ki denotes a dissociation constant, usually derived from enzyme kinetics or from competition with a known ligand. As for `O=C1CC(c2ccc(O)c(O)c2)Oc2c1ccc(O)c2O` (stereo not drawn) [Compound 4, isookanin], the IC50 at mushroom tyrosinase [1] (setting [3]) is 58.43 ± 0.38 µM. Besides, the Ki on mushroom tyrosinase [2] (setting [4]) came out at 18.6 ± 0.53 µM. The Type of inhibition entry on mushroom tyrosinase [2] (setting [5]) is “non-competitive”.

`COc1ccc([C@@H]2CC(=O)c3c(O)cc(O)cc3O2)cc1O` [Compound 5, hesperetin] gave an IC50 against mushroom tyrosinase [1] of 237 ± 2.63 µM.

At mushroom tyrosinase [1], `COc1ccc(C2CC(=O)c3c(O)cc(OC4OC(COC5OC(C)C(O)C(O)C5O)C(O)C(O)C4O)cc3O2)cc1O` (stereo not drawn) [Compound 6, hesperetin 7-O-rutinoside] came in with an IC50 of 131 ± 1.4 µM.

In turn, `O=c1cc(-c2ccccc2)oc2cccc(O)c12` [Compound 7, 5-hydroxyflavone] yielded an IC50 against mushroom tyrosinase [1] of 120 ± 1.48 µM.

For `COc1ccccc1-c1cc(=O)c2c(O)cccc2o1` [Compound 8, 5-hydroxy-2′-methoxyflavone], 122.1 ± 1.19 µM corresponded to half-maximal inhibition at mushroom tyrosinase [1] (IC50).

At mushroom tyrosinase [1], `COc1cccc(OC)c1-c1cc(=O)c2c(O)cccc2o1` [Compound 9, 5-hydroxy-2′,6′-dimethoxyflavone] had an IC50 of 127 ± 1.4 µM.

Take `O=c1cc(-c2ccccc2)oc2cc(O)cc(O)c12` [Compound 11, chrysin]: the IC50 against mushroom tyrosinase [1] turned out to be 129.4 ± 1.13 µM.

On to `O=c1cc(-c2ccc(O)cc2)oc2cc(O)cc(O)c12` [Compound 12, apigenin], for which the IC50 against mushroom tyrosinase [1] was 160.5 ± 1.44 µM.

Regarding `O=c1cc(-c2ccc(O)cc2)oc2cc(OC3OC(CO)C(O)C(O)C3O)cc(O)c12` (stereo not drawn) [Compound 13, apigenin 7-O-glucoside], half-maximal inhibition at mushroom tyrosinase [1] (IC50) required 323.2 ± 1.48 µM.

In the case of `O=c1cc(-c2ccc(O)cc2)oc2c([C@@H]3O[C@H](CO)[C@@H](O)[C@H](O)[C@H]3O)c(O)cc(O)c12` [Compound 14, apigenin 8-C-glucoside], half-maximal inhibition on mushroom tyrosinase [1] (IC50) was put at 133 ± 1.83 µM.

At mushroom tyrosinase [1], `COc1ccc(-c2cc(=O)c3c(O)cc(O)cc3o2)cc1` [Compound 16, acacetin] came in with an IC50 of 207.9 ± 1.35 µM.

In the case of `O=c1cc(-c2ccc(O)c(O)c2)oc2cc(O)cc(O)c12` [Compound 17, luteolin], the IC50 at mushroom tyrosinase [1] (setting [3]) stood at 58.9 ± 0.78 µM. For the same molecule, the Ki on mushroom tyrosinase [2] (setting [4]) came to 11.3 ± 0.77 µM. For the same molecule, the Type of inhibition result on mushroom tyrosinase [2] (setting [5]) is on record as “non-competitive”.

In turn, `O=c1cc(-c2ccc(O)c(O)c2)oc2cc(OC3OC(CO)C(O)C(O)C3O)cc(O)c12` (stereo not drawn) [Compound 18, luteolin 7-O-glucoside] returned an IC50 against mushroom tyrosinase [1] of 415 ± 2.38 µM.

In turn, `O=c1cc(-c2ccc(O)c(O)c2)oc2cc(O)c([C@@H]3O[C@H](CO)[C@@H](O)[C@H](O)[C@H]3O)c(O)c12` [Compound 20, luteolin-6-C-glucoside] yielded an IC50 against mushroom tyrosinase [1] of 133 ± 2.32 µM.

`COc1ccc(-c2cc(=O)c3c(O)cc(O)c(C4OC[C@@H](O)[C@H](O)[C@H]4OC4O[C@H](CO)[C@@H](O)[C@H](O)[C@H]4O)c3o2)cc1O` (stereo partly drawn) [Compound 22, 5,7,3′-trihydroxy-4′-methoxyflavone-8-C-xylopyranoside-2"-O-glucoside]: at mushroom tyrosinase [1] (setting [3]), the IC50 is over 500 µM.

With `CC(=O)Oc1ccc(-c2cc(=O)c3c(O)cc(O)c(C4OC[C@@H](O)[C@H](O)[C@H]4OC4O[C@H](CO)[C@@H](O)[C@H](O)[C@H]4O)c3o2)cc1O` (stereo partly drawn) [Compound 23, 5,7,3′-trihydroxy-4′-acetoxyflavone-8-C-xylopyranoside-2"-O-glucoside], the IC50 on mushroom tyrosinase [1] (setting [3]) was over 500 µM.

On to `COc1cc(-c2cc(=O)c3c(O)cc(O)c(C4OC[C@@H](O)[C@H](O)[C@H]4OC4O[C@H](CO)[C@@H](OC(C)=O)[C@H](O)[C@H]4O)c3o2)ccc1OC(C)=O` (stereo partly drawn) [Compound 25, 5,7-dihydroxy-3′-methoxy-4′-acetoxyflavone-8-C-xylopyranoside-2"-O-(4′"-acetoxy)-glucoside], for which, at mushroom tyrosinase [1] (setting [3]), the IC50 was over 500 µM.

Consider `O=c1c(O)c(-c2ccc(O)cc2)oc2cc(O)cc(O)c12` [Compound 26, kaempferol], for which the IC50 at mushroom tyrosinase [1] (setting [3]) stood at 65.1 ± 1.09 µM. Also, the Ki at mushroom tyrosinase [2] (setting [4]) came to 40.2 ± 0.46 µM. For the same molecule, the Type of inhibition entry on mushroom tyrosinase [2] (setting [5]) is recorded as “competitive”.

For the molecule `COc1c(O)cc(O)c2c(=O)c(O)c(-c3ccc(O)cc3)oc12` [Compound 27, 8-methoxykaempferol], the IC50 at mushroom tyrosinase [1] (setting [3]) was found to be 290.5 ± 1.19 µM.

With `COc1cc(O)c2c(=O)c(OC)c(-c3ccc(O)cc3)oc2c1` [Compound 28, kumatakenin], on mushroom tyrosinase [1] (setting [3]), the IC50 is over 500 µM.

Consider `O=c1c(O[C@@H]2O[C@H](CO)[C@@H](O)[C@H](O)[C@H]2O)c(-c2ccc(O)cc2)oc2cc(O)cc(O)c12` [Compound 29, kaempferol 3-O-glucoside], for which 481.5 ± 1.73 µM corresponded to half-maximal inhibition at mushroom tyrosinase [1] (IC50).

In the case of `O=C(O)C1OC(Oc2c(-c3ccc(O)cc3)oc3cc(O)cc(O)c3c2=O)C(O)C(O)C1O` (stereo not drawn) [Compound 30, kaempferol 3-O-glucuronide], the IC50 on mushroom tyrosinase [1] (setting [3]) stood at 270 ± 1.23 µM.

On to `O=c1c(OC2OC(CO)C(O)C(O)C2O)c(-c2ccc(O)cc2)oc2cc(O)cc(O)c12` (stereo not drawn) [Compound 31, kaempferol 3-O-galactoside], for which 186.9 ± 1.09 µM corresponded to half-maximal inhibition at mushroom tyrosinase [1] (IC50).

The molecule `O=C(/C=C/c1ccc(O)cc1)OC[C@H]1O[C@@H](Oc2c(-c3ccc(O)cc3)oc3cc(O)cc(O)c3c2=O)[C@H](O)[C@@H](O)[C@@H]1O` [Compound 32, kaempferol 3-O-(6″-O-trans-p-coumaroyl)-glucoside] returned an IC50 against mushroom tyrosinase [1] of 78.5 ± 0.84 µM. This molecule registered a Ki on mushroom tyrosinase [2] of 9.83 ± 0.57 µM. Moreover, the Type of inhibition result at mushroom tyrosinase [2] (setting [5]) is recorded as “competitive”.

As to `COc1ccc(-c2oc3cc(O)cc(O)c3c(=O)c2OC)cc1` [Compound 33, ermanin], the IC50 on mushroom tyrosinase [1] (setting [3]) came to 231.7 ± 1.17 µM.

For the molecule `COc1ccc(-c2oc3c(CC=C(C)C)c(O[C@@H]4O[C@H](CO)[C@@H](O)[C@H](O)[C@H]4O)cc(O)c3c(=O)c2O[C@@H]2O[C@@H](C)[C@H](O)[C@@H](O)[C@H]2O)cc1` [Compound 34, icariin], on mushroom tyrosinase [1] (setting [3]), the IC50 was found to be 150 ± 1.84 µM.

With `O=c1c(O)c(-c2ccc(O)c(O)c2)oc2cc(O)cc(O)c12` [Compound 35, quercetin], the Type of inhibition result on mushroom tyrosinase [2] (setting [5]) is “competitive”.

As to `O=C(O)C1OC(Oc2c(-c3ccc(O)c(O)c3)oc3cc(O)cc(O)c3c2=O)C(O)C(O)C1O` (stereo not drawn) [Compound 36, quercetin 3-O-glucuronide], the IC50 on mushroom tyrosinase [1] came out at 220.1 ± 1.14 µM.

With `C[C@@H]1O[C@@H](OC[C@H]2O[C@@H](Oc3c(-c4ccc(O)c(O)c4)oc4cc(O)cc(O)c4c3=O)[C@H](O)[C@@H](O)[C@@H]2O)[C@H](O)[C@H](O)[C@H]1O` [Compound 37, quercetin 3-O-rutinoside], half-maximal inhibition against mushroom tyrosinase [1] (IC50) required 141.7 ± 1.3 µM.

As to `CC1OC(OCC2OC(Oc3c(-c4ccc(O)c(O)c4)oc4cc(OC5OC(CO)C(O)C(O)C5O)cc(O)c4c3=O)C(O)C(O)C2O)C(O)C(O)C1O` (stereo not drawn) [Compound 38, quercetin 3-O-rutinoside-7-O-glucoside], the IC50 on mushroom tyrosinase [1] (setting [3]) was determined as 148 ± 1.57 µM.

`O=c1c(O)c(-c2cc(O)c(O)c(O)c2)oc2cc(O)ccc12` [Compound 41, robinetin] registered an IC50 at mushroom tyrosinase [1] of 63.1 ± 0.85 µM. For the same molecule, at mushroom tyrosinase [2], the Ki amounted to 27.4 ± 0.62 µM. The Type of inhibition entry on mushroom tyrosinase [2] (setting [5]) is “non-competitive”.

With `O=c1c(O)c(-c2cc(O)c(O)c(O)c2)oc2cc(O)cc(O)c12` [Compound 42, myricetin], the IC50 against mushroom tyrosinase [1] turned out to be 100 ± 1.86 µM.

For `O=c1c(-c2ccc(O)cc2)coc2cc(O)ccc12` [Compound 43, daidzein], the IC50 against mushroom tyrosinase [1] is over 500 µM.

The molecule `O=c1c(-c2ccc(O)cc2)coc2cc(O)cc(O)c12` [Compound 44, genistein] had an IC50 at mushroom tyrosinase [1] of over 500 µM.
